Square brackets hold non-standard residues; d marks the D form. Peptide text beside a SMILES is read from it. * marks the point of attachment. X1 = CN1CC[C@]23c4c5ccc(O)c4O[C@H]2C(NCCSC2CC(=O)N(CCCCCCN4C(=O)CC(*)C4=O)C2=O)CC[C@@]3(O)[C@H]1C5; Hyp = O=C(O)[C@@H]1C[C@@H](O)CN1
What was measured:
BK2 -receptor = target: T1, BK2 -receptor (Rattus norvegicus, UniProt P25023); assay: rat uterus assay of bradykinin antagonist (BKAn) activity; type: cell-based; settings: bradykinin induced uterine contraction
T1 construct: BKAn activity (pA2) was assessed using the rat uterus preparation; from tissue; host or cells: rat uterus
T1 sequence (P25023 1-396): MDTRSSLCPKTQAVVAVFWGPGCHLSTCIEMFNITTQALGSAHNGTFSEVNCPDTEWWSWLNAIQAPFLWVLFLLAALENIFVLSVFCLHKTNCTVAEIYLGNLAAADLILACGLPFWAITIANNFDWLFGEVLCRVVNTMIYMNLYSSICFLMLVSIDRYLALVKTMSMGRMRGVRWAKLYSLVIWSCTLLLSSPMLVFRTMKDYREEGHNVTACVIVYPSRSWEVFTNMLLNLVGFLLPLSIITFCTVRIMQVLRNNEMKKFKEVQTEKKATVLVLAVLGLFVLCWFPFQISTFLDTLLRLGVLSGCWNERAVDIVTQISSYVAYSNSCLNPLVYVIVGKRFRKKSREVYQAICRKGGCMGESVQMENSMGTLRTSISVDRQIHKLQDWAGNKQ

[1] = target: T2, purified human neutrophil elastase (HNE) (Homo sapiens, UniProt P08246); assay: neutrophil elastase inhibition with chromogenic substrate MOS-AAPV-pNA; type: biochemical; settings: MOS-AAPV-pNA 0.5 mM, HNE 10-20 nM, pH 7.5, 25 C; read-out: Ki^ss (HNE)
T2 sequence (P08246 30-247 limits assumed): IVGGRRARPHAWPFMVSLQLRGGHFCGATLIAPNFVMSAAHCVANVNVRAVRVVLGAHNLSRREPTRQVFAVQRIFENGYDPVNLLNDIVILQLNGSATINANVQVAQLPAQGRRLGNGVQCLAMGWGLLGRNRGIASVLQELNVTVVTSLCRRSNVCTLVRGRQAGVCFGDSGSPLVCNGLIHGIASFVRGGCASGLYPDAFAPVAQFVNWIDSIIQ

[2] = tested on: mice injected in the hind limb foot pad with formalin; assay: mouse formalin test (inflammatory and neurogenic pain, hind limb licking); type: in vivo; settings: for narcotic / behavioral side effects observed in the formalin test: oxymorphone at highest doses 0.9 and 3.0 umoles/kg, CP-0494 over several hours
Description: In order to test the activity of these compounds in vivo, a model of inflammatory and neurogenic pain was used. This model measures the behavioral responses of mice injected in the hind limb foot pad with 50 ul of formalin. Control mice (open circles) show a characteristic bi-phasic response to the injected formalin wherein there is a short lasting initial response followed by a quiescent period which is then followed by a sustained period of hind limb licking. The licking behavior is interpreted to mean that the limb is irritated and painful. The greater the time spent licking, the more painful the stimulus.

cyclooxygenase = assay: rat lung parenchymal strips challenged with arachidonic acid; type: cell-based; settings: contraction in response to exogenously applied arachidonic acid
Description: As mentioned previously, for the COI to work it may need to be dissociated from the BKAn so as to allow for its intracellular penetration. Therefore, in order to evaluate the functional activity of a BKAn/COI heterodimer, CP-0460 was exposed to rat lung parenchymal strips which were then challenged with arachidonic acid. This tissue is known to contain both non-specific esterase activity as well as to convert arachidonic acid to thromboxane (via a cyclooxygenase dependent pathway) which is then ultimately responsible for the smooth muscle contraction observed in this assay.

[3] = freshly obtained normal human plasma; settings: 37° C.

CC(C)(C)c1ccc(C(C)(C)C(=O)Oc2ccc(S(=O)(=O)CCCC(=O)O)cc2)cc1 [CE-1218, 4-(3'-carboxy-propylsulfonyl)phenyl 4-tert-butylphenylisobutyrate]
pA2 --Rat Uterus (BK2 -receptor): inactive
Ki [1]: 10.5 nM

CC(C)C[C@H](NC(=O)[C@@H](Cc1ccccc1)NC(=O)[C@H](CSC1CC(=O)N(CCCCCCN2C(=O)CC(SCCNC3CC[C@@]4(O)[C@H]5Cc6ccc(O)c7c6[C@@]4(CCN5C)[C@H]3O7)C2=O)C1=O)NC(=O)[C@H](Cc1ccccc1)NC(=O)CNC(=O)[C@@H]1C[C@@H](O)CN1C(=O)[C@@H]1CCCN1C(=O)[C@H](CCCNC(=N)N)NC(=O)[C@H](N)CCCNC(=N)N)C(=O)N[C@@H](CCCNC(=N)N)C(=O)O (some centres unmarked) [CP-0494] (H-[dR]RP[Hyp]GFC(X1)[dF]LR-OH)
narcotic / behavioral side effects observed in the formalin test [2]: no observable narcotic effects

COc1ccc2c(c1)c(CC(=O)O)c(C)n2C(=O)c1ccc(Cl)cc1 [indomethacin]
pA2 --Rat Uterus (BK2 -receptor): no effect
log dose ratio shift (cyclooxygenase): 0.998±0.425

CN1CC[C@]23c4c5ccc(O)c4O[C@H]2C(=O)CC[C@@]3(O)[C@H]1C5 [oxymorphone]
effect on licking behavior in both phases of the formalin test ([2]; 50 ul formalin in hind limb foot pad): reduces both phases of the licking behavior
narcotic / behavioral side effects observed in the formalin test [2]: significant behavioral obtundation resulting in catalepsy and frank respiratory depression

DR-R-P-J-G-F-C-DF-L-R
cleaved bond [3]: Leu8-Arg9
